Measured values from the supplement of paper PMC10733146.

Assays:
Test in all cases: viability relative to DMSO control (fraction); higher = less drug effect (more viable cells)
Conditions in all cases: 48 h
[1] = tested on: primary ALL patient cells (S048)
Method in brief: (§1)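 Using 384-well plates with compounds already plated at five concentrations, one well per concentration, 4 × 10^4 primary mononuclear tumour cells were added per well. Cells were Ficoll-isolated from blood or bone marrow or came from processed lymph node, fresh or cryopreserved. They were kept for 48 h at 37 °C and 5% CO2 in RPMI-1640 supplemented with penicillin/streptomycin, L-glutamine and human serum, and viability was read as CellTiter-Glo luminescence relative to the median of 16 inner DMSO wells.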

[2] = tested on: primary AML patient cells (S002)
Method in brief: as §1

[3] = tested on: primary AML patient cells (S006)
Method in brief: as §1

[4] = tested on: primary AML patient cells (S009)
Method in brief: as §1

[5] = tested on: primary AML patient cells (S012)
Method in brief: as §1

[6] = tested on: primary AML patient cells (S017)
Method in brief: as §1

[7] = tested on: primary AML patient cells (S021)
Method in brief: as §1

[8] = tested on: primary AML patient cells (S025)
Method in brief: as §1

[9] = tested on: primary AML patient cells (S055)
Method in brief: as §1

[10] = tested on: primary AML patient cells (S056)
Method in brief: as §1

[11] = tested on: primary AML patient cells (S072)
Method in brief: as §1

[12] = tested on: primary AML patient cells (S079)
Method in brief: as §1

[13] = tested on: primary AML patient cells (S081)
Method in brief: as §1

[14] = tested on: primary BL patient cells (S005)
Method in brief: as §1

[15] = tested on: primary CLL patient cells (S043)
Method in brief: as §1

[16] = tested on: primary FL patient cells (S022)
Method in brief: as §1

[17] = tested on: primary MCL patient cells (S053)
Method in brief: as §1

[18] = tested on: primary MCL patient cells (S063)
Method in brief: as §1

[19] = tested on: primary MCL patient cells (S068)
Method in brief: as §1

[20] = tested on: primary T-PLL patient cells (S008)
Method in brief: as §1

Compound `O=C1c2c(O)ccc(O)c2C(=O)c2c(NCCNCCO)ccc(NCCNCCO)c21` [Mitoxantrone] has a viability ([1]; 0.008 µM) of 0.449, a viability ([1]; 0.04 µM) of 0.0767 and a viability ([1]; 0.2 µM) of 0.113. It also gave a viability ([1]; 1 µM) of 0.0232, a viability ([1]; 5 µM) of 0.0139 and a viability ([2]; 0.008 µM) of 0.744. For the same compound, the viability ([2]; 0.04 µM) was 0.443, the viability ([2]; 0.2 µM) was 0.332 and the viability ([2]; 1 µM) was 0.334. For the same compound, the viability ([2]; 5 µM) was 0.22, the viability ([3]; 0.008 µM) was 0.426 and the viability ([3]; 0.04 µM) was 0.155. The viability ([3]; 0.2 µM) was 0.0754, the viability ([3]; 1 µM) was 0.0534 and the viability ([3]; 5 µM) was 0.0375. It also gave a viability ([4]; 0.008 µM) of 0.788, a viability ([4]; 0.04 µM) of 0.651 and a viability ([4]; 0.2 µM) of 0.517. It also gave a viability ([4]; 1 µM) of 0.156, a viability ([4]; 5 µM) of 0.0504 and a viability ([5]; 0.008 µM) of 0.991. It also gave a viability ([5]; 0.04 µM) of 0.995, a viability ([5]; 0.2 µM) of 0.978 and a viability ([5]; 1 µM) of 0.862. The viability ([5]; 5 µM) was 0.0416, the viability ([6]; 0.008 µM) was 0.952 and the viability ([6]; 0.04 µM) was 0.811. The viability ([6]; 0.2 µM) was 0.608, the viability ([6]; 1 µM) was 0.126 and the viability ([6]; 5 µM) was 0.0293. The viability ([7]; 0.008 µM) was 0.66, the viability ([7]; 0.04 µM) was 0.327 and the viability ([7]; 0.2 µM) was 0.265. For the same compound, the viability ([7]; 1 µM) was 0.212, the viability ([7]; 5 µM) was 0.106 and the viability ([8]; 0.008 µM) was 0.539. The viability ([8]; 0.04 µM) was 0.399, the viability ([8]; 0.2 µM) was 0.533 and the viability ([8]; 1 µM) was 0.0658. For the same compound, the viability ([8]; 5 µM) was 0.0287, the viability ([9]; 0.008 µM) was 0.978 and the viability ([9]; 0.04 µM) was 0.869. For the same compound, the viability ([9]; 0.2 µM) was 0.821, the viability ([9]; 1 µM) was 0.729 and the viability ([9]; 5 µM) was 0.234. For the same compound, the viability ([10]; 0.008 µM) was 0.397, the viability ([10]; 0.04 µM) was 0.17 and the viability ([10]; 0.2 µM) was 0.128. For the same compound, the viability ([10]; 1 µM) was 0.0823, the viability ([10]; 5 µM) was 0.0488 and the viability ([11]; 0.008 µM) was 0.839. The viability ([11]; 0.04 µM) was 0.715, the viability ([11]; 0.2 µM) was 0.661 and the viability ([11]; 1 µM) was 0.152. The viability ([11]; 5 µM) was 0.0445, the viability ([12]; 0.008 µM) was 0.801 and the viability ([12]; 0.04 µM) was 0.655. It also gave a viability ([12]; 0.2 µM) of 0.526, a viability ([12]; 1 µM) of 0.133 and a viability ([12]; 5 µM) of 0.0172. The viability ([13]; 0.008 µM) was 0.995, the viability ([13]; 0.04 µM) was 1.01 and the viability ([13]; 0.2 µM) was 1.09. The viability ([13]; 1 µM) was 0.167, the viability ([13]; 5 µM) was 0.0158 and the viability ([14]; 0.008 µM) was 0.963. For the same compound, the viability ([14]; 0.04 µM) was 1.55, the viability ([14]; 0.2 µM) was 0.853 and the viability ([14]; 1 µM) was 0.649. It also gave a viability ([14]; 5 µM) of 0.742, a viability ([15]; 0.008 µM) of 0.739 and a viability ([15]; 0.04 µM) of 0.849. The viability ([15]; 0.2 µM) was 0.488, the viability ([15]; 1 µM) was 0.0542 and the viability ([15]; 5 µM) was 0.0236. The viability ([16]; 0.008 µM) was 0.953, the viability ([16]; 0.04 µM) was 0.844 and the viability ([16]; 0.2 µM) was 0.804. The viability ([16]; 1 µM) was 0.437, the viability ([16]; 5 µM) was 0.229 and the viability ([17]; 0.008 µM) was 0.452. It also gave a viability ([17]; 0.04 µM) of 0.326, a viability ([17]; 0.2 µM) of 0.363 and a viability ([17]; 1 µM) of 0.236. For the same compound, the viability ([17]; 5 µM) was 0.169, the viability ([18]; 0.008 µM) was 1.02 and the viability ([18]; 0.04 µM) was 0.812. It also gave a viability ([18]; 0.2 µM) of 0.598, a viability ([18]; 1 µM) of 0.246 and a viability ([18]; 5 µM) of 0.0145. The viability ([19]; 0.008 µM) was 0.814, the viability ([19]; 0.04 µM) was 0.596 and the viability ([19]; 0.2 µM) was 0.434. The viability ([19]; 1 µM) was 0.0583, the viability ([19]; 5 µM) was 0.0225 and the viability ([20]; 0.008 µM) was 1.02. It also gave a viability ([20]; 0.04 µM) of 0.961, a viability ([20]; 0.2 µM) of 0.502 and a viability ([20]; 1 µM) of 0.0553. For the same compound, the viability ([20]; 5 µM) was 0.0424.
For `COc1cccc2c1C(=O)c1c(O)c3c(c(O)c1C2=O)C[C@@](O)(C(=O)CO)C[C@@H]3O[C@H]1C[C@H](N)[C@H](O)[C@H](C)O1` [Doxorubicin], the viability ([1]; 0.0016 µM) was 1.06, the viability ([1]; 0.008 µM) was 1.01 and the viability ([1]; 0.04 µM) was 0.418. For the same compound, the viability ([1]; 0.2 µM) was 0.0592, the viability ([1]; 1 µM) was 0.0152 and the viability ([2]; 0.0016 µM) was 1.06. The viability ([2]; 0.008 µM) was 1.08, the viability ([2]; 0.04 µM) was 0.695 and the viability ([2]; 0.2 µM) was 0.401. For the same compound, the viability ([2]; 1 µM) was 0.33, the viability ([3]; 0.0016 µM) was 1.02 and the viability ([3]; 0.008 µM) was 1.05. The viability ([3]; 0.04 µM) was 0.788, the viability ([3]; 0.2 µM) was 0.32 and the viability ([3]; 1 µM) was 0.0625. It also gave a viability ([4]; 0.0016 µM) of 1.07, a viability ([4]; 0.008 µM) of 0.994 and a viability ([4]; 0.04 µM) of 0.934. It also gave a viability ([4]; 0.2 µM) of 0.644, a viability ([4]; 1 µM) of 0.221 and a viability ([5]; 0.0016 µM) of 1.04. The viability ([5]; 0.008 µM) was 1.04, the viability ([5]; 0.04 µM) was 0.88 and the viability ([5]; 0.2 µM) was 0.896. The viability ([5]; 1 µM) was 0.0673, the viability ([6]; 0.0016 µM) was 1.2 and the viability ([6]; 0.008 µM) was 1.1. The viability ([6]; 0.04 µM) was 1.07, the viability ([6]; 0.2 µM) was 0.96 and the viability ([6]; 1 µM) was 0.146. For the same compound, the viability ([7]; 0.0016 µM) was 0.994, the viability ([7]; 0.008 µM) was 1.01 and the viability ([7]; 0.04 µM) was 0.929. It also gave a viability ([7]; 0.2 µM) of 0.438, a viability ([7]; 1 µM) of 0.182 and a viability ([8]; 0.0016 µM) of 0.99. It also gave a viability ([8]; 0.008 µM) of 1.01, a viability ([8]; 0.04 µM) of 0.848 and a viability ([8]; 0.2 µM) of 0.501. The viability ([8]; 1 µM) was 0.119, the viability ([9]; 0.0016 µM) was 1.02 and the viability ([9]; 0.008 µM) was 0.99. For the same compound, the viability ([9]; 0.04 µM) was 1.02, the viability ([9]; 0.2 µM) was 0.947 and the viability ([9]; 1 µM) was 0.487. It also gave a viability ([10]; 0.0016 µM) of 1.02, a viability ([10]; 0.008 µM) of 0.889 and a viability ([10]; 0.04 µM) of 0.812. It also gave a viability ([10]; 0.2 µM) of 0.584, a viability ([10]; 1 µM) of 0.0807 and a viability ([11]; 0.0016 µM) of 1.05. It also gave a viability ([11]; 0.008 µM) of 1.01, a viability ([11]; 0.04 µM) of 0.947 and a viability ([11]; 0.2 µM) of 0.704. For the same compound, the viability ([11]; 1 µM) was 0.162, the viability ([12]; 0.0016 µM) was 1.05 and the viability ([12]; 0.008 µM) was 1.1. The viability ([12]; 0.04 µM) was 1.03, the viability ([12]; 0.2 µM) was 0.769 and the viability ([12]; 1 µM) was 0.244. For the same compound, the viability ([13]; 0.0016 µM) was 1.05, the viability ([13]; 0.008 µM) was 1.09 and the viability ([13]; 0.04 µM) was 1.12. For the same compound, the viability ([13]; 0.2 µM) was 1.18, the viability ([13]; 1 µM) was 0.0358 and the viability ([14]; 0.0016 µM) was 1.03. The viability ([14]; 0.008 µM) was 1.03, the viability ([14]; 0.04 µM) was 0.968 and the viability ([14]; 0.2 µM) was 0.875. It also gave a viability ([14]; 1 µM) of 0.838, a viability ([15]; 0.0016 µM) of 1.03 and a viability ([15]; 0.008 µM) of 0.956. For the same compound, the viability ([15]; 0.04 µM) was 0.97, the viability ([15]; 0.2 µM) was 0.615 and the viability ([15]; 1 µM) was 0.0447. The viability ([16]; 0.0016 µM) was 1.12, the viability ([16]; 0.008 µM) was 1.17 and the viability ([16]; 0.04 µM) was 0.892. For the same compound, the viability ([16]; 0.2 µM) was 0.281, the viability ([16]; 1 µM) was 0.183 and the viability ([17]; 0.0016 µM) was 0.959. For the same compound, the viability ([17]; 0.008 µM) was 0.756, the viability ([17]; 0.04 µM) was 0.448 and the viability ([17]; 0.2 µM) was 0.216. It also gave a viability ([17]; 1 µM) of 0.299, a viability ([18]; 0.0016 µM) of 1.01 and a viability ([18]; 0.008 µM) of 0.98. It also gave a viability ([18]; 0.04 µM) of 0.997, a viability ([18]; 0.2 µM) of 0.735 and a viability ([18]; 1 µM) of 0.0566. It also gave a viability ([19]; 0.0016 µM) of 0.995, a viability ([19]; 0.008 µM) of 0.978 and a viability ([19]; 0.04 µM) of 0.761. The viability ([19]; 0.2 µM) was 0.307, the viability ([19]; 1 µM) was 0.0522 and the viability ([20]; 0.0016 µM) was 1.04. The viability ([20]; 0.008 µM) was 1.15, the viability ([20]; 0.04 µM) was 0.972 and the viability ([20]; 0.2 µM) was 0.958. For the same compound, the viability ([20]; 1 µM) was 0.607.
